Laboratory results taken from patent US4544512A, “Tridecyloxy- or tetradecyloxy-propane derivatives” (Takeda Chemical Industries, Ltd., priority 1980, dated 1985).
Converted amounts (≈) assume the structure as drawn.

Tests used:
[1] = tested on: spontaneous myeloid leukemia M1 cells; test: Growth inhibition of cultured spontaneous mouse myeloid leukemia M1 cells (GD50); format: cell-based, mice (SL-strain); conditions: for IC50: Mus musculus, 72 h, 3 days, 37° C., Trypan Blue dye-exclusion, M1 Resistant clone; for B/A (GD50 normal bone marrow cells / GD50 M1 cells): ratio of GD50 values, 4320 min
Protocol: (§1) BALB/c mice at a concentration of 1 μg/ml (Cancer Res. 39, pp. 4681-4686 (1979)). The present inventors conducted comparative tests between octadecyl phospholipid and the corresponding tridecyl compound as well as tetradecyl compound on the activity (GD50) to inhibit the multiplication of spontaneous myeloid leukemia cells M1 in mice. […] The effect on the corresponding normal cells, i.e. on the myeloid cells of normal mice, is far weaker in the tetradecyl compounds. Therefore, in view of the balance of the inhibiting activity against multiplication of tumor cells and the safety (Chemotherapy Coefficient), it can be said that tetradecyl phospholipid is preferable to octadecyl phospholipid.
(§2) By employing Eagle's minimum essential medium supplemented with 10% heat-inactivated calf serum, incubation of spontaneous myeloid leukemia M1 cells (Resistant clone) harvested from mice (SL-strain) and normal bone marrow cells of mice of the same strain was conducted, in the presence or absence of the test compound in various concentrations, in a humified CO2 incubator at 37° C. for 3 days. The number of viable cells was determined by the Trypan Blue Stain dye-exclusion test. The concentration of the tested compound for 50% inhibiting the proliferation of M1 cells or normal bone marrow cells (GD50) was determined, and the result was shown in Table 1.

normal bone marrow cells = test: Growth inhibition of normal mouse bone marrow cells (GD50); format: cell-based, mice (SL-strain); conditions: Bone marrow cell, 72 h, 3 days, 37° C., Trypan Blue dye-exclusion, read-out: GD50 Normal mouse bone marrow cells (B)
Protocol: as §1, §2

**Q.** For CCCCCCCCCCCCCCOCC(COP(=O)([O-])OCC[N+](C)(C)C)OC (stereo not drawn) [drawing 18], which IC50 [1] is on record?
**A.** 1.2 µg/mL (≈ 2.57 µM)

**Q.** What about the “B/A (GD50 normal bone marrow cells / GD50 M1 cells)” value [1] of the same molecule?
**A.** 33

**Q.** What about the IC50 (normal bone marrow cells) of the same molecule?
**A.** 40 µg/mL (≈ 85.5 µM)

**Q.** How did the IC50 [1] turn out when CCCCCCCCCCCCCCCCCCOCC(COP(=O)([O-])OCC[N+](C)(C)C)OC (stereo not drawn) [drawing 17, reference compound] was run?
**A.** 0.6 µg/mL (≈ 1.15 µM)

**Q.** What about the “B/A (GD50 normal bone marrow cells / GD50 M1 cells)” value [1] of the same molecule?
**A.** 25

**Q.** What about the IC50 (normal bone marrow cells) of the same molecule?
**A.** 15 µg/mL (≈ 28.6 µM)
